Data on four molecules can be found in publication PMC5041959, “A high-content EMT screen identifies multiple receptor tyrosine kinase inhibitors with activity on TGFβ receptor” (Oncotarget, 2016).

Where two headings read alike, the source gives them in different places.

For data set [1] the following is noted: cited from earlier work.
For data set [2] the following is noted: cited from earlier work. This is another data set of the same source.
Data set [3] relates to NMuMG cells. Nature of the data set: High-content microscopy EMT screen in TGFβ-treated NMuMG cells (FA, SF, FN, cell count). The data set is classed as cell-based, murine.
For data set [4], the target named is FGFR2 (Homo sapiens, UniProt P21802). Nature of the data set: Biochemical kinase profiling (33PanQinase radiometric assay).
Data set [5] has as its target TGFBR2 (Homo sapiens, UniProt P37173). The data set is described as above. To be noted: read-out: TGFBR2 IC50; ATP at apparent Km.
Data set [6] addresses FGFR3 (Homo sapiens, UniProt P22607). Described as above.
The target of data set [7] is PDGFRA (Homo sapiens, UniProt P16234). The description is as above.
For data set [8], the target named is T1, VEGFR1 (Homo sapiens, UniProt P17948).
T1 construct: purchased ProQinase (Freiburg, Germany)
Described as above. The note with it: ATP at apparent Km.

Data set [9] concerns the target PDGFRB (Homo sapiens, UniProt P09619). The description is as above.
Data set [10] concerns the target FGFR4 (Homo sapiens, UniProt P22455). The description is as above.
The target of data set [11] is EGFR (Homo sapiens, UniProt P00533). Described as above.
For data set [12], the target named is FGFR1 (Homo sapiens, UniProt P11362). The data set is described as above.
Data set [13] addresses T2, VEGFR3 (Homo sapiens, UniProt P35916).
T2 construct: purchased ProQinase (Freiburg, Germany)
The description is as above. The note with it: ATP at apparent Km.

Data set [14] addresses SRC (Homo sapiens, UniProt P12931). The data set is described as above.
Data set [15] deals with T3, c-KIT (Homo sapiens, UniProt P10721).
T3 construct: purchased ProQinase (Freiburg, Germany)
The data set is described as above. The note with it: ATP at apparent Km.

The subject of data set [16] is NMuMG cells. In words: E-cadherin, ZO1 and vimentin immunofluorescence in TGFβ-treated NMuMG cells. The data set is classed as cell-based, murine. To be noted: four days TGFβ plus inhibitor. On the procedure:
NMuMG and Py2T cells were trypsinized, washed, seeded at 1000 cells/well, resuspended in 40 μl growth medium with a Multidrop-384 (Titertek) in 384-well microplates (Greiner, 781091), and grown overnight at 37°C, 5% CO2. The next day, 111 μl growth medium was added with the Multidrop-384 to 1 μl of the 2 mM library compounds of which 10 μl was transferred with a 384-well pipettor (VPrep, Agilent, US) to the cell assay plate and equilibrated for 10 min (final compound concentration 3 μM). For screenings at 300 nM or 30 nM, the compounds were diluted 1:10 or 1:100 in growth medium, respectively, before use. […]
Cells were imaged using the automated epifluorescence microscope ImageXpress Micro from Molecular Devices (Sunnyvale CA, USA) equipped with a plate-loading robot (CRS Catalyst, Thermo Scientific). […] The images were automatically analyzed by MetaXpress and segmented into sub-cellular structures based on morphological features such as object size and fluorescence distribution. Fluorescence distribution was a measure of the threshold intensity above local background and was adjusted for all parameters (nuclei, FA, SF and FN) by means of the respective positive and negative controls to compensate for inter-experimental variations between the different screening batches. […] Vimentin was quantified similar to SF and FN using the Angiogenesis module. […]

In data set [17] the test system is SMAD3 phosphorylation (TGFBR activity). Nature of the data set: Quantification of SMAD3 phosphorylation in TGFβ-treated NMuMG cells (immunoblot, LI-COR). To be noted: one day TGFβ plus inhibitor. The data set is classed as cell-based, murine. The method, then: NMuMG cells plated the day before were treated for one day with TGFβ and DMSO or an inhibitor as described in the figure legends. Cells were washed with PBS and lyzed in RIPA buffer (150 mM NaCl, 2 mM MgCl, 2 mM CaCl2, 0.5% Na-deoxycholate, 10% glycerol, 1% NP-40, 0.1% SDS, 50 mM Tris pH8 supplementary with 1 mM DTT, 10 mM NaF, 1 mM sodium orthovanadate and protease inhibitor cocktail (Roche)). The proteins were resolved using SDS-PAGE and transferred to PVDF membrane. For quantitative analysis of SMAD phosphorylation, the membrane was probed with p-SMAD2/3 and GAPDH specific primary antibodies followed by fluorescent secondary antibodies (LI-COR Biosciences). The signal was captured and quantified with the Odyssey CLx Imaging system and ImageJ software form 3 independent experiments.
(In general: In western blotting, separated proteins are transferred to a membrane and probed.)

The subject of data set [18] is Py2T cells. Nature of the data set: High-content microscopy EMT assay in TGFβ-treated Py2T breast cancer cells. The data set is classed as cell-based, murine. The note with it: Mus musculus.
Setting [19] is: Mus musculus, 96 h; NMuMG, TGFβ1 2 ng/ml plus compound, 4 days; parameter decreased by 50%; read-out: FA IC50 (focal adhesion formation).
Setting [20] is: Mus musculus, 96 h; NMuMG, TGFβ1 2 ng/ml plus compound, 4 days; parameter decreased by 50%; read-out: FN IC50 (fibronectin patch formation).
Setting [21] is: Mus musculus, 96 h; NMuMG, TGFβ1 2 ng/ml plus compound, 4 days; parameter decreased by 50%; read-out: SF IC50 (stress fibers).
Where [22] appears, read: Mus musculus; NMuMG; cell count decreased by 50% compared to DMSO control; read-out: Tox IC50.
Setting [23] is: Mus musculus; NMuMG; mean of IC50 values obtained for FA, SF, FN; read-out: EMT (FA/SF/FN) combined IC50.
The mark [24] stands for this setting: Mus musculus; read-out: CCI IC50 (cell count increase).
The mark [25] stands for this setting: Mus musculus; read-out: Emax (maximal effect on cell count).

Chain of EGFR (P00533 25-1210): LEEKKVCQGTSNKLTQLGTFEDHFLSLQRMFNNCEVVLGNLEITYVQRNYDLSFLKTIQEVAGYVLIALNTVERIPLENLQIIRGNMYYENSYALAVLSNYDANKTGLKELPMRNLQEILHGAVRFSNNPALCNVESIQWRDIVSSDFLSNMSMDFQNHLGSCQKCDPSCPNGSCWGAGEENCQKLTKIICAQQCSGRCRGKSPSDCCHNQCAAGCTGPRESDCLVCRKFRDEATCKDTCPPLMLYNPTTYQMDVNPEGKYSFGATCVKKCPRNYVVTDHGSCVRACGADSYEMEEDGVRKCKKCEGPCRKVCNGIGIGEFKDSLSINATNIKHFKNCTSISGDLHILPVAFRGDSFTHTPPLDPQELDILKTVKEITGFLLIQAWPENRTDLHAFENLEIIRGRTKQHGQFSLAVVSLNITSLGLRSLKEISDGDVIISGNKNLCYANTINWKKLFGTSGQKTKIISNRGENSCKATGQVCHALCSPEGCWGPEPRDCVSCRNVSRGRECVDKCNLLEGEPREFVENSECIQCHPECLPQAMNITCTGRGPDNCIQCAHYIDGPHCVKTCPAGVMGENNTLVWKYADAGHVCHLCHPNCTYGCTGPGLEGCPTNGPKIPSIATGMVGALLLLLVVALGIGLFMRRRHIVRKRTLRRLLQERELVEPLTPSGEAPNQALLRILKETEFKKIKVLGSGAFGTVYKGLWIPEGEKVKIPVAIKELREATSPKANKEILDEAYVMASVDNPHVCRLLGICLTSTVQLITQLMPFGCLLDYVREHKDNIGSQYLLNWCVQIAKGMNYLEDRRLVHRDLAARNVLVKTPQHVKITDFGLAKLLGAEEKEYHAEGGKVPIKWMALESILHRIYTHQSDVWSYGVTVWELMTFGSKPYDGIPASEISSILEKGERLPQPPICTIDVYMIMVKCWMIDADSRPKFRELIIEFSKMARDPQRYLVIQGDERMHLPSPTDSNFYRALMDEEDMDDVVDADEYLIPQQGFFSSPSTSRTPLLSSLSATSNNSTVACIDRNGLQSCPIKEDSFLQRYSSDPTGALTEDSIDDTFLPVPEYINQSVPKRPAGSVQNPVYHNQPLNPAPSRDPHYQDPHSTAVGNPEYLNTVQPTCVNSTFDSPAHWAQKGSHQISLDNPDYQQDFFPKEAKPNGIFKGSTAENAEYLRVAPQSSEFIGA
Chain of FGFR4 (P22455 22-802): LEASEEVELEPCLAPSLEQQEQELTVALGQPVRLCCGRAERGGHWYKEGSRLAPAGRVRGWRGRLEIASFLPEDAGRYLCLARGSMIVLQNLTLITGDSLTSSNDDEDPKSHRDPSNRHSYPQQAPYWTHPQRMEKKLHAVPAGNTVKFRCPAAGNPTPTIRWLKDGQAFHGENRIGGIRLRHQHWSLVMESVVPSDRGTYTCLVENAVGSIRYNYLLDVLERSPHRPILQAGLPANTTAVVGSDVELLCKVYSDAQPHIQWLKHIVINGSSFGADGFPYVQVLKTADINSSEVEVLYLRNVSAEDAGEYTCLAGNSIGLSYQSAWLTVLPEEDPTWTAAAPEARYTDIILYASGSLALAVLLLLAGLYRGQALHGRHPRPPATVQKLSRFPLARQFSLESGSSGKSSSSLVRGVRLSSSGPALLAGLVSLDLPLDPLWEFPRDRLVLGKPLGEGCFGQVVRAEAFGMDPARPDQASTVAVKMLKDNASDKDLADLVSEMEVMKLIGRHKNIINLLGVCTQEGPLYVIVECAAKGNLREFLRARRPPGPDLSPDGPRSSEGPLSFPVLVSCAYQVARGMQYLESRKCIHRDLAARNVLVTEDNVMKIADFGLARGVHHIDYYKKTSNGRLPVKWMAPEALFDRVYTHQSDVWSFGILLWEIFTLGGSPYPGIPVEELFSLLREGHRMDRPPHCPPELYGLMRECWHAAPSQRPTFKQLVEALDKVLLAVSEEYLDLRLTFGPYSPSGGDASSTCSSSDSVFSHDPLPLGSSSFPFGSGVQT
Chain of FGFR1 (P11362 22-822): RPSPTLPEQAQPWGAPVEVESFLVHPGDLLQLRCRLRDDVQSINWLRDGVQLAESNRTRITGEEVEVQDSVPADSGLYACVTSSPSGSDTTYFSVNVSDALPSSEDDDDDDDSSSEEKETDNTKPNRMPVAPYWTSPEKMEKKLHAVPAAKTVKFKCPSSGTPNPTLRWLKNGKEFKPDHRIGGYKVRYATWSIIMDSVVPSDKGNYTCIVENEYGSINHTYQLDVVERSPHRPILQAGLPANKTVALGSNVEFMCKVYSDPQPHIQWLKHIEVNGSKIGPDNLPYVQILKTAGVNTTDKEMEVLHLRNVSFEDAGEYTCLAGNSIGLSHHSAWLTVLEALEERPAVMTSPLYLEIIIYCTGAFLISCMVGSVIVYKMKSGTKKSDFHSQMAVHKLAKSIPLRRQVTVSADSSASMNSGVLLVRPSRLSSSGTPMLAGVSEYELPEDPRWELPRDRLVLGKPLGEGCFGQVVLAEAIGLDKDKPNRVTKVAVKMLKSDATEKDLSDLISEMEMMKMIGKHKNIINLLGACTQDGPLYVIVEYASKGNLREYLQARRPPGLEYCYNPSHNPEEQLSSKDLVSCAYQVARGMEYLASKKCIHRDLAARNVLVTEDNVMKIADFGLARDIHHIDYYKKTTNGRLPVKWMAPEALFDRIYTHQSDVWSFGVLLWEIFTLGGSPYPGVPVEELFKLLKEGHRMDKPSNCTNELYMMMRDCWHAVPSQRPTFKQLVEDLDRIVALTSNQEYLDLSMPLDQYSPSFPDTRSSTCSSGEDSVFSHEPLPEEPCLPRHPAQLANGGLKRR
Chain of SRC (P12931 whole entry): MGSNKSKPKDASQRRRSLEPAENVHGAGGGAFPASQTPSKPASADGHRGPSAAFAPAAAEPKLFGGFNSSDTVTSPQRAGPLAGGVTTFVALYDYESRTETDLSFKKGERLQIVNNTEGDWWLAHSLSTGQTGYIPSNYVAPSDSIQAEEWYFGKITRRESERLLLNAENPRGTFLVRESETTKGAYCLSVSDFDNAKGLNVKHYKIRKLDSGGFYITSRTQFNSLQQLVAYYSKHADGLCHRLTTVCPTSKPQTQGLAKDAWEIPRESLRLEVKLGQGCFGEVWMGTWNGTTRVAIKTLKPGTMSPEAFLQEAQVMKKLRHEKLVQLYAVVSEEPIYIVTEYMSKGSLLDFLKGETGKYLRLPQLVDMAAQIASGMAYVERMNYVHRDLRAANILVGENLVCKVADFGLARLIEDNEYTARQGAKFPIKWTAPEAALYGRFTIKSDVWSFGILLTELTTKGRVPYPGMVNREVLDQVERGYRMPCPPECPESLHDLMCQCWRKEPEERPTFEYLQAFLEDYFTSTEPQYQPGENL
Chain of PDGFRA (P16234 24-1089): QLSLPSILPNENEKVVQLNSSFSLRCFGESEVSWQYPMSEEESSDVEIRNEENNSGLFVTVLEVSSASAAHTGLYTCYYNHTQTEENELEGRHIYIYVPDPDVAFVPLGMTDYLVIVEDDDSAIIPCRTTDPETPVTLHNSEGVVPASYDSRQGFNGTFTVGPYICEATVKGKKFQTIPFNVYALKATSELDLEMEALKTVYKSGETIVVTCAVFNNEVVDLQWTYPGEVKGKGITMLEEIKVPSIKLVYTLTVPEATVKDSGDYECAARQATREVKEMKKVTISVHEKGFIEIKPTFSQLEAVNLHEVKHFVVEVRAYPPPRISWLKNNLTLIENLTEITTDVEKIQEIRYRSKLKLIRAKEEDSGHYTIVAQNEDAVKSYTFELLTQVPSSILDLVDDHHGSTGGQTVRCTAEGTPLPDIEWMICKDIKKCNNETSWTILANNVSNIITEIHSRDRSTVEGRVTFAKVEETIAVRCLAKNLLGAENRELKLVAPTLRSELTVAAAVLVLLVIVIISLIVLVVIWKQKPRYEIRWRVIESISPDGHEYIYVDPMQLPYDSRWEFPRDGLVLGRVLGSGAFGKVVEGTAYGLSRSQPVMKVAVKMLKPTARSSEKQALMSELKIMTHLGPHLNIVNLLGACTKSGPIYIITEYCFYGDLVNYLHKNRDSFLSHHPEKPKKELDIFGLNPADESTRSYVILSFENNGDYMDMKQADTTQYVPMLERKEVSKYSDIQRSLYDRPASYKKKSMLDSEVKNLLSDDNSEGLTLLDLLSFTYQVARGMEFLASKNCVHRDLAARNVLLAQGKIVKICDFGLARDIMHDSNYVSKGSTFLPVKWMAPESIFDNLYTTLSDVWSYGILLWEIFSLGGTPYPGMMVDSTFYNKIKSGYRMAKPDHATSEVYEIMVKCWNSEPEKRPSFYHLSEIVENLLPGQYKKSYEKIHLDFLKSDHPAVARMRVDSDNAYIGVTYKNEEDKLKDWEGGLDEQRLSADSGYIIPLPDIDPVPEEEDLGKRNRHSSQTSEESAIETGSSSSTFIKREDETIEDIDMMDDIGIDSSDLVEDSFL
Chain of TGFBR2 (P37173 23-567): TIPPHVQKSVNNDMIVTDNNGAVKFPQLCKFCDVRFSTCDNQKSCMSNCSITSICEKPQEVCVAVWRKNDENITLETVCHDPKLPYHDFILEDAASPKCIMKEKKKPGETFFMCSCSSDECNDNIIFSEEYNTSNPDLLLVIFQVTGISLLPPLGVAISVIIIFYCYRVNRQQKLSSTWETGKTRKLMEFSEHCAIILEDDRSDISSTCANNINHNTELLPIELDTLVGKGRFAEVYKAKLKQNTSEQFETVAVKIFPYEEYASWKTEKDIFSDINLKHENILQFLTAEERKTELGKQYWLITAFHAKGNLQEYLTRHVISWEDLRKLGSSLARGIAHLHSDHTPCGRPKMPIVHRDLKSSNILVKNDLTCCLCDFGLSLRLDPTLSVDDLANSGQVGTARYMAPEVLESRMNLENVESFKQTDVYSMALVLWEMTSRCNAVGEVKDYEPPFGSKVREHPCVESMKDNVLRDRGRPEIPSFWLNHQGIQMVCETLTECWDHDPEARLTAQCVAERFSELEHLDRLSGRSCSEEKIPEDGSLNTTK

As usually defined, the Emax is the maximal effect, on the per cent scale that the assay sets. Turning to `Cc1ccc(Nc2nccc(N(C)c3ccc4c(C)n(C)nc4c3)n2)cc1S(N)(=O)=O` [Pazopanib], the “steady state blood levels required to be active in patients” value in data set [1] was “at least 40 μM”. In [2], the plasma protein binding result is “above 99.9%”. The IC50 is 8030 nM in [3] (setting [19]); 3950 nM in data set [3] (setting [20]); 7300 nM in data set [3] (setting [21]); 6400 nM in data set [3] (Mus musculus, combined FA/SF/FN; read-out: IC50 for blocking EMT in NMuMG cells); 15700 nM in data set [3] (setting [22]); 6430 nM in data set [3] (setting [23]). Moreover, in [3] (setting [24]), the IC50 came out at 1080 nM. Moreover, the Emax in [3] (setting [25]) came out at 17.6%.
In the case of `Cc1cccc(-c2[nH]ncc2-c2ccc3ncccc3n2)n1` [RepSox], the IC50 in [4] (read-out: FGFR2 IC50, ATP at apparent Km) was 4760 nM; in [5], 3070 nM; in data set [6] (read-out: FGFR3 IC50, ATP at apparent Km), over 10000 nM; in [7] (read-out: PDGFRA IC50, ATP at apparent Km), over 10000 nM; in data set [8] it was 1080 nM; in [9] (read-out: PDGFRB IC50, ATP at apparent Km), 4370 nM. Moreover, the IC50 is over 10000 nM in [10] (read-out: FGFR4 IC50, ATP at apparent Km); over 10000 nM in data set [11] (read-out: EGFR IC50, ATP at apparent Km); 47 nM in data set [3] (NMuMG, TGFβ1 2 ng/ml plus compound, 4 days; parameter decreased by 50%; read-out: FA IC50 (focal adhesion formation)); 44 nM in data set [3] (NMuMG, TGFβ1 2 ng/ml plus compound, 4 days; parameter decreased by 50%; read-out: FN IC50 (fibronectin patch formation)); 55 nM in data set [3] (NMuMG, TGFβ1 2 ng/ml plus compound, 4 days; parameter decreased by 50%; read-out: SF IC50 (stress fibers)); over 3000 nM in data set [3] (NMuMG; cell count decreased by 50% compared to DMSO control; read-out: Tox IC50). Also, the IC50 in data set [3] (NMuMG; cell count increased by 50% compared to 100% with 10 μM SB-431542; read-out: CCI IC50 (cell count increase)) was 88 nM; in data set [3] (NMuMG; mean of IC50 values obtained for FA, SF, FN; read-out: EMT (FA/SF/FN) combined IC50) it was 48.7 nM; in data set [12] (read-out: FGFR1 IC50, ATP at apparent Km) it was over 10000 nM; in data set [13] it was 1640 nM; in data set [14] (read-out: SRC IC50, ATP at apparent Km), 6100 nM; in data set [15], 5240 nM. The “Emax (maximal effect on cell count)” value in [3] (NMuMG; compared to reference 10 μM SB-431542 = 100%) came out at 100%.
As for `NC(=O)c1ccc(-c2nc(-c3ccc4c(c3)OCO4)c(-c3ccccn3)[nH]2)cc1` [SB-431542], the IC50 in [4], in [6], in data set [7], in data set [9], in data set [10] and in [11] was over 10000 nM throughout. Besides, the IC50 in [3] (setting [19]) was 243 nM; in data set [3] (setting [20]), 195 nM; in data set [3] (setting [21]), 184 nM; in [3] (Mus musculus; NMuMG, TGFβ treatment, proof of concept; read-out: IC50 in all three parameters (focal adhesion formation, stress fibers, fibronectin deposition)) it was about 200 nM; in [3] (setting [22]) it was over 25000 nM; in [3] (setting [23]) it was 388 nM. The IC50 was 584 nM in data set [3] (setting [24]); 156 nM in [18] (96 h, Py2T, TGFβ plus compound, 4 days, read-out: FA IC50 (focal adhesions)); 167 nM in data set [18] (96 h, Py2T, TGFβ plus compound, 4 days, read-out: FN IC50 (fibronectin patches)); 175 nM in [18] (96 h, Py2T, TGFβ plus compound, 4 days, read-out: SF IC50 (stress fibers)); about 200 nM in [18] (Py2T, TGFβ-induced EMT, read-out: IC50 for reduction of EMT markers); 7460 nM in [18] (Py2T, cell count decreased by 50% compared to DMSO control, read-out: Tox IC50). For the same molecule, the figures for the IC50 in data set [18] (read-out: CCI IC50 (cell count increase)), in [12] and in data set [14] were 140 nM, over 10000 nM and over 10000 nM, respectively. In data set [16], the “effect on TGFβ-induced loss of E-cadherin and ZO1 from junctions and vimentin filament formation” value is “completely blocked”. For the same molecule, the “SMAD3 phosphorylation (p-SMAD3/GAPDH)” value in data set [17] was “blocked”. Further, the Emax in data set [3] (setting [25]) and in data set [18] (read-out: Emax (maximal effect on cell count)) was 100% throughout.
In the case of `CNC(=O)c1cc(Oc2ccc(NC(=O)Nc3ccc(Cl)c(C(F)(F)F)c3)cc2)ccn1` [Sorafenib], the “effect on TGFβ-induced loss of E-cadherin and ZO1 from junctions and vimentin filament formation” value in data set [16] is “only marginally stabilized”. Besides, the plasma protein binding in [2] is reported as 99.7%. For the same molecule, the IC50 in data set [3] (Mus musculus, 96 h, read-out: FA IC50 (focal adhesion formation)) stood at 2090 nM; in data set [3] (Mus musculus, 96 h, read-out: FN IC50 (fibronectin patch formation)), 1350 nM; in data set [3] (Mus musculus, 96 h, read-out: SF IC50 (stress fibers)), 3930 nM; in [3] (Mus musculus, read-out: CCI IC50 (cell count increase)), 103 nM; in [3] (Mus musculus, read-out: EMT (FA/SF/FN) combined IC50), 2460 nM; in data set [3] (Mus musculus, read-out: Tox IC50), 12600 nM. In addition, the Emax in data set [3] (Mus musculus, read-out: Emax (maximal effect on cell count)) is 17.5%.
